The values that follow come from ChEMBL document CHEMBL5325512, “Sub-stoichiometric Modulation of Viral Targets-Potent Antiviral Agents That Exploit Target Vulnerability” (ACS Med Chem Lett, 2023).

The test system of experiment [1] is Human immunodeficiency virus 1. The experiment in a line: Antiviral activity against HIV 1 harbouring A362T/V362I/V370 mutant. The format is functional, organism-based.
Experiment [2] relates to Human immunodeficiency virus 1. The experiment in a line: Binding affinity to HIV1 Gag V362I/V370A mutant assessed as dissociation half life.
In experiment [3] the test system is Human immunodeficiency virus 1. Description: Antiviral activity against wild type HIV 1. Format: functional, organism-based.
Experiment [4] can be described thus: Selectivity ratio of EC50 for antiviral activity against HIV1 harbouring A364V mutant to EC50 for antiviral activity wild type HIV1. The format is functional, Human immunodeficiency virus 1.
For experiment [5], the system named is Gag-Pol polyprotein (Human immunodeficiency virus type 1 group M subtype B (isolate HXB2)(HIV-1)), P04585 [A364V]. The experiment in a line: Binding affinity to HIV1 Gag A364V mutant assessed as dissociation half life. To be noted: Human immunodeficiency virus 1.
The target of experiment [6] is Human immunodeficiency virus type 1 Gag protein (Human immunodeficiency virus 1) (UniProt Q77YG1). Description: Binding affinity to HIV1 wild type Gag assessed as dissociation half life.
For experiment [7], the system named is Human immunodeficiency virus 1. Description: Antiviral activity against HIV 1 harbouring V370A mutant. The format is functional, organism-based.
A short description of experiment [8]: Selectivity ratio of EC50 for antiviral activity against HIV1 harbouring V370A mutant to EC50 for antiviral activity against wild type HIV1. Format: functional, Human immunodeficiency virus 1.
Experiment [9] deals with Human immunodeficiency virus 1. Description: Binding affinity to HIV1 Gag V370A/deltaT371 mutant assessed as dissociation half life.
For experiment [10], the system named is Human immunodeficiency virus 1. The experiment in a line: Antiviral activity against HIV1 harbouring T332S/V362I/prR41G mutant. The format is functional, organism-based.
A short description of experiment [11]: Selectivity ratio of EC50 for antiviral activity against HIV1 harbouring V362I/V370A mutant to EC50 for antiviral activity against wild type HIV1. The format is functional, Human immunodeficiency virus 1.
Experiment [12] relates to Human immunodeficiency virus 1. Description: Antiviral activity against HIV 1 harbouring A364V mutant. Format: functional, organism-based.
Experiment [13] deals with Human immunodeficiency virus 1. Description: Antiviral activity against HIV 1 harbouring deltaV370 mutant. The format is functional, organism-based.
For experiment [14], the system named is Human immunodeficiency virus 1. Description: Antiviral activity against HIV 1 harbouring V362I/V370 mutant. Format: functional, organism-based.
The nature of experiment [15]: Selectivity ratio of EC50 for antiviral activity against HIV1 harbouring deltaV370A mutant to EC50 for antiviral activity against wild type HIV1. Format: functional, Human immunodeficiency virus 1.
Experiment [16] relates to Human immunodeficiency virus 1. The experiment in a line: Binding affinity to HIV1 Gag deltaV370A mutant assessed as dissociation half life.
A short description of experiment [17]: Selectivity ratio of EC50 for antiviral activity against HIV1 harbouring T332S/V362I/prR41G mutant to EC50 for antiviral activity wild type HIV1. Format: functional, Human immunodeficiency virus 1.
The test system of experiment [18] is Human immunodeficiency virus 1. Description: Antiviral activity against HIV 1 harbouring R361K/V362I/L363M mutant. The format is functional, organism-based.
Experiment [19] in a line: Selectivity ratio of EC50 for antiviral activity against HIV1 harbouring A362T/V362I/V370A mutant to EC50 for antiviral activity wild type HIV1. The format is functional, Human immunodeficiency virus 1.
Experiment [20] is described as follows: Selectivity ratio of EC50 for antiviral activity against HIV1 harbouring R361K/V362I/L363M mutant to EC50 for antiviral activity wild type HIV1. Format: functional, Human immunodeficiency virus 1.
In experiment [21] the test system is Human immunodeficiency virus 1. Description: Antiviral activity against wild type HIV 1 NL4-3. Format: functional, organism-based. Particulars: Human immunodeficiency virus 1, NL4-3.
The subject of experiment [22] is Human immunodeficiency virus 1. Description: Antiviral activity against wild type HIV 1 in presence of human serum albumin. Format: functional, organism-based.
Experiment [23] relates to Human immunodeficiency virus 1. Description: Antiviral activity against HIV1 infected in human assessed as reduction in Plasma viremia by measuring HIV1 RNA at 140 mg/kg after 7 days. Format: functional. To be noted: time 7 day.
Experiment [24] has as its system Human immunodeficiency virus 1. The experiment in a line: Antiviral activity against HIV1 infected in human assessed as reduction in Plasma viremia by measuring HIV1 RNA at 40 mg/kg after 7 days. To be noted: time 7 day. Format: functional.
Experiment [25] relates to Gag-Pol polyprotein (Human immunodeficiency virus type 1 group M subtype B (isolate HXB2)(HIV-1)), P04585 [V370A]. The experiment in a line: Binding affinity to HIV1 Gag V370A mutant assessed as dissociation half life. To be noted: Human immunodeficiency virus 1.
For experiment [26], the system named is Human immunodeficiency virus 1. Description: Antiviral activity against HIV1 infected in human assessed as reduction in Plasma viremia by measuring HIV1 RNA at 200 mg/kg after 10 days. The format is functional. To be noted: time 10 day.
The test system of experiment [27] is Human immunodeficiency virus 1. The experiment in a line: Antiviral activity against HIV1 infected in human assessed as reduction in Plasma viremia by measuring HIV1 RNA at 80 mg/kg after 7 days. The format is functional. Particulars: time 7 day.
Experiment [28] concerns Human immunodeficiency virus 1. The experiment in a line: Antiviral activity against HIV1 infected in human assessed as reduction in Plasma viremia by measuring HIV1 RNA at 10 mg/kg after 10 days. Particulars: time 10 day. The format is functional.
In experiment [29] the test system is Gag-Pol polyprotein (Human immunodeficiency virus type 1 group M subtype B (isolate HXB2)(HIV-1)), P04585 [V362I]. The experiment in a line: Binding affinity to HIV1 Gag V362I mutant assessed as dissociation half life. To be noted: Human immunodeficiency virus 1.

Take `C=C(C)[C@@H]1CC[C@]2(NCCN3CCS(=O)(=O)CC3)CC[C@]3(C)[C@H](CC[C@@H]4[C@@]5(C)CC=C(c6ccc(C(=O)O)cc6)C(C)(C)[C@@H]5CC[C@]43C)[C@@H]12` [BMS-955176]: the EC50 in [1] was above 3000 nM; in experiment [3], 5 nM; in experiment [7], 6 nM; in experiment [10], 704 nM; in [12], above 3000 nM; in [13] it was 6 nM. The EC50 in experiment [14] was above 3000 nM; in experiment [18], 552 nM. Besides, the T1/2 in experiment [2] is 0.583 h; in experiment [5], below 1 min; in [6], 0.85 h; in [9] it was 0.8 h; in [16], 0.767 h. The “Ratio EC50” value is listed as above 600 in experiment [4]; 1.2 in experiment [8]; above 600 in experiment [11]; 1.2 in [15]; 141 in experiment [17]; above 600 in [19]. Also, the “Ratio EC50” value in experiment [20] was found to be 110.
Consider `C=C(C)[C@@H]1CC[C@]2(NCCN3CCS(=O)(=O)CC3)CC[C@]3(C)[C@H](CC[C@@H]4[C@@]5(C)CC=C(C6=CCC(C(=O)O)CC6)C(C)(C)[C@@H]5CC[C@]43C)[C@@H]12` (stereo partly specified), for which the EC50 in [7] amounted to 0.7 nM; in experiment [13], 2 nM; in experiment [21], 0.6 nM; in experiment [22], 9 nM.
As for `C=C(C)[C@@H]1CC[C@]2(NCCN3CCS(=O)(=O)CC3)CC[C@]3(C)[C@H](CC[C@@H]4[C@@]5(C)CC=C(C6=CC[C@@](CF)(C(=O)O)CC6)C(C)(C)[C@@H]5CC[C@]43C)[C@@H]12` [FIPRAVIRIMAT], the EC50 in experiment [1] worked out at 26 nM; in experiment [3], 3 nM; in experiment [7], 2 nM; in experiment [10] it was 7 nM; in [12] it was 274 nM; in experiment [13], 3 nM. Also, the EC50 in [14] and in experiment [18] was 3 nM each time. Further, the Activity in experiment [23] is reported as -1.5; in experiment [24], -1.2; in experiment [26], -2; in experiment [27], -1; in experiment [28], -0.4. Also, the T1/2 in experiment [2] was 3.78 h; in [5] it was below 1 min; in experiment [6], 6.02 h; in [9] it was 7.65 h; in [25], 7.23 h; in experiment [16] it was 5.25 h. In addition, the T1/2 in experiment [29] turned out to be 4.48 h. Moreover, the “Ratio EC50” value in experiment [4] came out at 91; in experiment [8], 0.7; in experiment [11] it was 1; in experiment [15], 1; in experiment [17], 2.3; in [19], 8.7. Further, the “Ratio EC50” value in experiment [20] was 1.
Regarding `C=C(C)[C@@H]1CC[C@]2(NCCN3CCS(=O)(=O)CC3)CC[C@]3(C)[C@H](CC[C@@H]4[C@@]5(C)CC=C(C6=CC[C@@H](C(=O)O)CC6)C(C)(C)[C@@H]5CC[C@]43C)[C@@H]12`, the EC50 is 19 nM in [10]; 3 nM in [13]; 15 nM in experiment [14]; 3 nM in [21]; 5 nM in experiment [22].
